This passage reports EC50, IC50 and AC50 results from ChEMBL document CHEMBL1201862, “PubChem BioAssay data set” (2004).

The source made the active and inactive calls.

The target in experiment [1] is Metabotropic glutamate receptor 5 (Rattus norvegicus, UniProt P31424). The experiment can be described thus: Identification of a glycine sulfonamide based non-MPEP site positive allosteric potentiator (PAM) of mGlu5 (calcium_assay). The class given is functional.
The nature of experiment [2]: Luminescence-based cell-based high throughput dose response assay to identify activators of the DAF-12 from the parasite S. stercoralis (ssDAF-12). Format: functional.
In experiment [3] the target is T1, Oxysterols receptor LXR-beta (Homo sapiens, UniProt P55055).
T1 sequence (P55055 whole entry): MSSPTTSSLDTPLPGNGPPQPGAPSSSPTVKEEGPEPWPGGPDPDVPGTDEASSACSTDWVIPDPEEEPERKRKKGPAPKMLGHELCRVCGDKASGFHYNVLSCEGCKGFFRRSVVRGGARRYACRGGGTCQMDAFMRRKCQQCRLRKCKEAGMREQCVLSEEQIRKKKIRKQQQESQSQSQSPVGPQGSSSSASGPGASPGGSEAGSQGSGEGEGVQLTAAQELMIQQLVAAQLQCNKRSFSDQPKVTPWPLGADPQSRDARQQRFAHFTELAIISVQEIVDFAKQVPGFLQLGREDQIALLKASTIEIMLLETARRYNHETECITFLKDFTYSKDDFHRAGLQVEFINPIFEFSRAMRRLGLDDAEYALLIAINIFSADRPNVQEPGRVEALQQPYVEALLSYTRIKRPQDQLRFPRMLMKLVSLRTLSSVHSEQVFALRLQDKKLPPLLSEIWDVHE
Kind of experiment: LXR agonists, Gal4 luciferase reporter, dose response, counter-screen for ssDAF-12 agonist project, cell-based, luminescence, HEK293, S. stercoralis campaign (AID 720737). Format: functional. The settings on record: read-out: IC50 (the source's name). Background: In a reporter assay the amount or activity of a reporter protein is the signal.

For experiment [4], the target named is Disintegrin and metalloproteinase domain-containing protein 17 (Homo sapiens, UniProt P78536). The experiment can be described thus: exosite inhibitors of ADAM17, dose response, biochemical (AID 743260).
A short description of experiment [5]: inhibition of ADAM10 peptide cleavage – biochemical, FRET peptide substrate, recombinant human ADAM10, selectivity assay for ADAM17 exosite inhibitor project, dose response (AID 743259).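 Further: ADAM10 enzyme cleaving a FRET peptide substrate.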
For experiment [6], the target named is NAD-dependent protein deacylase sirtuin-5, mitochondrial (Homo sapiens, UniProt Q9NXA8). Kind of experiment: sirtuin-5 deacylation blockers, concentration series – biochemical, fluorescence imaging, cherry-pick, set 5, dose response (AID 720591).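 Further: desuccinylation of succinyl peptide AMC substrate read as fluorescence after trypsin release; potency of inhibitors that lower fluorescence and may act on trypsin instead.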
Experiment [7] can be described thus: inhibitors acting on PAX2 in cells – cell-based, plate reader, dry powder samples, selectivity assay for PAX8 inhibitor project, dose response (AID 743048).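 Further: HEK293 cells carrying a WT1 promoter luciferase reporter driven by expressed Pax2; potency is for inhibition of Pax2 driven reporter signal.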 Format: functional.
Experiment [8] is described as follows: OVCAR-3 cell viability loss – plate reader, dry powder samples, PAX8 inhibitor project, dose response (AID 743044). The class given is functional, cell-based.
Experiment [9] is described as follows: PAX5 cellular inhibition readout – cell-based, plate reader, dry powder samples, selectivity assay for PAX8 inhibitor project, dose response (AID 743047).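 Further: HEK293 cells carrying a Pax5 driven CD19 promoter luciferase reporter; potency of inhibitors that lower reporter luminescence.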 Format: functional.
The nature of experiment [10]: IGROV1 cell killing – plate reader, dry powder samples, PAX8 inhibitor project, dose response (AID 743043). The class given is functional, cell-based. The settings on record: IGROV-1.
The nature of experiment [11]: COV434 cell viability loss – plate reader, dry powder, SA7, cytotoxicity control for PAX8 inhibitor project, dose response (AID 743145). The class given is functional, cell-based.
Experiment [12] can be described thus: OV-90 cell viability loss – plate reader, dry powder, SA8, PAX8 inhibitor project, dose response (AID 743149). The class given is functional, cell-based.
Experiment [13] is described as follows: PAX8-dependent cell viability loss – plate reader, dry powder, dose response (AID 743049). Format: functional, cell-based.
The target of a further experiment is Melanocortin receptor 4 (Homo sapiens, UniProt P32245). The experiment can be described thus: inhibitors of MC4R cAMP signaling – cell-based, TR-FRET, biased antagonists, dose response (AID 602298).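 Further: antagonist potency against agonist-stimulated cAMP production.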 The class given is functional. A general note: Time-resolved FRET reads energy transfer from a long-lived donor to a nearby acceptor.
A short description of experiment [14]: cAMP pathway inhibition in counterscreen cell line – TR-FRET cAMP detection, counter-screen for MC4R biased antagonist project, dose response (AID 602305).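 Further: U2OS cells stimulated with forskolin near its EC80 as the cAMP inducer; potency is for inhibition of forskolin-stimulated cAMP signaling.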 Format: functional, cell-based. For orientation: The purpose of a counterscreen is to sort out artefacts and off-target activity.
Experiment [15] is described as follows: A549 cell cytotoxicity, dose response, cytotoxicity control, plate reader, cherry-pick, antagonist series (AID 743412). Format: functional, cell-based.
Experiment [16] is described as follows: toxicity toward HepG2 liver cells – cell-based, plate reader, cherry-pick, antagonist series, cytotoxicity control, dose response (AID 743416). The class given is functional.
Experiment [17] in a line: blockers of bursicon-stimulated LGR2 cAMP reporter – cell-based, HEK293, CRE-luciferase reporter, cherry pick, set 2, dose response (AID 743343).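 Further: transfected cells were stimulated with diluted bursicon conditioned medium after compound addition.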 Format: functional.
The nature of experiment [18]: blockade of melanocortin 4 receptor signaling – cell-based, plate reader, cherry pick, counter-screen for LGR2 antagonist project, dose response (AID 743444).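 Further: transfected HEK 293 cells stimulated with alpha-MSH peptide; potency of inhibitors of the alpha-MSH evoked signal.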 The class given is functional.
The nature of experiment [19]: viability loss in HEK293 cells – cell-based, plate reader, cherry-picked samples, cytotoxicity control, dose response (AID 743446). The class given is functional.
A short description of experiment [20]: HIV-1 Vif–A3G interaction blockers – biochemical, TR-FRET, GST-Vif 1-94, biotin-A3G peptide, dose response retest, primary screen (AID 1117319).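 Further: TR-FRET signal of purified GST-Vif binding a biotinylated A3G peptide; inhibitors lower the FRET signal by blocking Vif and A3G binding.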 The class given is functional.
A short description of experiment [21]: viability inhibitors of stage V gametocytes – luminescence, dose response (AID 1117278).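 Further: gametocytes exposed to compound for 24 hours.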 Format: functional, cell-based.
The nature of experiment [22]: viability loss in human Jurkat cells – cell-based, luminescence, cytotoxicity control for P. falciparum gametocyte viability project, dose response (AID 1117277).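 Further: potency reflects loss of cellular ATP meaning fewer viable cells.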 Format: functional.

Sequence of Disintegrin and metalloproteinase domain-containing protein 17 (P78536 whole entry, the tested form may be a part): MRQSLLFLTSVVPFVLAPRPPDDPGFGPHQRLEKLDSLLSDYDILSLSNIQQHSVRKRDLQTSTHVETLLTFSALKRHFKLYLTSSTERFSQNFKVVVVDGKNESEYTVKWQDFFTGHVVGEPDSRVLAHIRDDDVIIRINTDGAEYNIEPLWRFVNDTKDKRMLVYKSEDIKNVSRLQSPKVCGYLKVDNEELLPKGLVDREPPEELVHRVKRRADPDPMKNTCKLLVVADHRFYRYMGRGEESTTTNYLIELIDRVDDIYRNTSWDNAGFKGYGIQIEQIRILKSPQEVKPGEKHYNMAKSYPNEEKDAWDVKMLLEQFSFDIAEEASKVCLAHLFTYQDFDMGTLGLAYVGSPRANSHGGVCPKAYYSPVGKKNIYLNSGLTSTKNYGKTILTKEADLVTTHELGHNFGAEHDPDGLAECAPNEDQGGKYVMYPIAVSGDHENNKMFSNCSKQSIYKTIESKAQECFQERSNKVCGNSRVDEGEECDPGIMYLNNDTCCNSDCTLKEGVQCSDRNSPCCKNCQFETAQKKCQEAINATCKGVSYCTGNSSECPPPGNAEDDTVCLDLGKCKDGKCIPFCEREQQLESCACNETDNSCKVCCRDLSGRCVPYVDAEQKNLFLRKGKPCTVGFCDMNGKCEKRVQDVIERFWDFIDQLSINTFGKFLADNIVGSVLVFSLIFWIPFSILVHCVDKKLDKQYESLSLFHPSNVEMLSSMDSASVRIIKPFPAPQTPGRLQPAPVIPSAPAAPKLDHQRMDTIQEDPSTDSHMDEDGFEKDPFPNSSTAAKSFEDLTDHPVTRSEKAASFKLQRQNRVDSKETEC
Sequence of Metabotropic glutamate receptor 5 (P31424 whole entry): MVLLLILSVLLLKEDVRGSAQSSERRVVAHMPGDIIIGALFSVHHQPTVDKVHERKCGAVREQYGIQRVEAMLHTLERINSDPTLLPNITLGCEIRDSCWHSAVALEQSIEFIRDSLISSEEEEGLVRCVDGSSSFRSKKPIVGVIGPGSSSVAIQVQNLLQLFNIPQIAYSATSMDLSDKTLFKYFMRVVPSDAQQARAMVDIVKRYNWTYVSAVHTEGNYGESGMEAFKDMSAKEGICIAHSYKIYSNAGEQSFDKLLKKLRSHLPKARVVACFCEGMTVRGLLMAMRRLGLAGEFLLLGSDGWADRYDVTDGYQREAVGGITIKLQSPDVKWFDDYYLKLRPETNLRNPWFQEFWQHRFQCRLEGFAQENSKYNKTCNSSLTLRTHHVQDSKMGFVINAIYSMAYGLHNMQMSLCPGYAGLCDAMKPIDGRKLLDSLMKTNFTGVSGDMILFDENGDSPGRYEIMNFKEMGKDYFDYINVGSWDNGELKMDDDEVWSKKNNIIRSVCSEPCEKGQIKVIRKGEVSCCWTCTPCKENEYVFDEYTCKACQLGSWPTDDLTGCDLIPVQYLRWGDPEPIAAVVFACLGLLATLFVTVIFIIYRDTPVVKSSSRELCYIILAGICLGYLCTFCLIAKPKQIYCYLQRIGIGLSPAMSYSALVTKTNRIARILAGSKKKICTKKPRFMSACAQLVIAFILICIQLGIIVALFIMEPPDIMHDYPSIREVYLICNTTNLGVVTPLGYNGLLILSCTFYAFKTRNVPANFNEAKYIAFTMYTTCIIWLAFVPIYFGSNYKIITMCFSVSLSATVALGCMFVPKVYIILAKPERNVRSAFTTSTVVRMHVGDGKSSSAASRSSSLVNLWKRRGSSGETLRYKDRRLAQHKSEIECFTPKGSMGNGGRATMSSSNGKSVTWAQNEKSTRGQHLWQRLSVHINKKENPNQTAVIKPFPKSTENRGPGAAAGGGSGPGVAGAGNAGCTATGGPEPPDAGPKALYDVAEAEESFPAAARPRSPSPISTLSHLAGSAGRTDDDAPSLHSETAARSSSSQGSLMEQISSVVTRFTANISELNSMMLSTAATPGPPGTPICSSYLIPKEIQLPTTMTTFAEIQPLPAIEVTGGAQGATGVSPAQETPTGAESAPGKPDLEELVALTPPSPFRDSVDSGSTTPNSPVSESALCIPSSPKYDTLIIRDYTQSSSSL
Sequence of Melanocortin receptor 4 (P32245 whole entry): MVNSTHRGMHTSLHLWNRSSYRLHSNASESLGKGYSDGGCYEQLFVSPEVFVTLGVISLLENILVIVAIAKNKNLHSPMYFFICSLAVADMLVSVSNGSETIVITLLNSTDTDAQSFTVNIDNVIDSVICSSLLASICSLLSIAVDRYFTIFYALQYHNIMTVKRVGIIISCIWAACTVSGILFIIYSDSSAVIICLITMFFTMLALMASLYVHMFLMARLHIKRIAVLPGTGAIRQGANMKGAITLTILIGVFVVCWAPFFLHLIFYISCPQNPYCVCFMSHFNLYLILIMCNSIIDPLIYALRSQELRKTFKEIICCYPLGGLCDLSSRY
Sequence of NAD-dependent protein deacylase sirtuin-5, mitochondrial (Q9NXA8 whole entry): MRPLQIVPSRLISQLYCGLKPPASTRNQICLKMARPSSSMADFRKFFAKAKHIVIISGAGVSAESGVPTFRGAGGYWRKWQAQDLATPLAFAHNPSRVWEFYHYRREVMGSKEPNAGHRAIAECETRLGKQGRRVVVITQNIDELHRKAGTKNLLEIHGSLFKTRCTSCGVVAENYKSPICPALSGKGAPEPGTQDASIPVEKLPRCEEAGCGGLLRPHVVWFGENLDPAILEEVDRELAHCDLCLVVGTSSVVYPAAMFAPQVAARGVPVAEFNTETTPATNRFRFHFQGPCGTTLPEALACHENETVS

In the case of `CS(=O)(=O)N(CC(=O)Nc1ccc(F)nc1)c1ccccc1Cl`, in experiment [1], the EC50 was 4.4 µM.

Broadly, the IC50 is the point on the concentration scale where inhibition reaches its midpoint. On to `COc1ccc(NC(=O)c2cc3ccccc3cc2OC)cc1`, for which, in experiment [2], the IC50 is > 67.5 µM (inactive). Also, the EC50 in [3] is > 67.5 µM (inactive).

As to `COc1ccccc1NC(=O)Cn1nc(-c2ccc(Cl)cc2)c2ccccc2c1=O`, the IC50 was > 69.5 µM (inactive) in experiment [4] and 16.3 µM (inactive) in experiment [5].

Take `O=C1CC(Nc2ccc3ccccc3c2)C(=O)N1Cc1ccccc1` (centres undefined): the IC50 in experiment [4] and in experiment [5] was > 69.5 µM (inactive) each time.

The term AC50 denotes the concentration at which the activity in the assay is half-maximal. Turning to `COc1ccc(N(C(C)=O)c2nc3ccccc3[nH]2)cc1`, in [6], the AC50 was > 30 µM (inactive).

On to `COc1ccccc1C#Cc1ccc([C@H]2[C@@H](CO)N(C(=O)C3CCCC3)[C@H]2C#N)cc1`, for which the AC50 in [7] is 27.6 µM (active); in [8] it was 48.3 µM (active); in [9], 23 µM (active); in experiment [10], 37.4 µM (active); in experiment [11] it was > 70 µM (inactive); in [12], > 70 µM (inactive). Moreover, the half-maximal activity concentration (AC50) in experiment [13] is 40.7 µM (active).

For `COc1ccc(CN2Cc3cnnn3-c3ccccc3C2C#N)cc1` (centres undefined), the figures for the IC50 (on Melanocortin receptor 4; in experiment [14]) were 26.3 µM (inactive) and > 64.7 µM (inactive), respectively. Also, the AC50 in experiment [15] was 20.6 µM (active); in experiment [16] it was > 52 µM (inactive); in experiment [17], 27.1 µM (active); in [18] it was 25.8 µM (active); in [19], 12.7 µM (active).

`Cc1ccc(-n2c(Cc3cccn3C)nnc2SCC(=O)Nc2nnc(C)s2)cc1`: the IC50 in experiment [20] is > 100 µM (active).

With `CC(C)CNC(=O)c1cccc(NC(=O)COc2ccc([N+](=O)[O-])cc2)c1`, the IC50 in experiment [21] is > 109 µM (inactive); in experiment [22], > 83.3 µM (inactive).

Take `Cc1ccc(-c2nnc(Nc3ccccc3)o2)cc1`: the AC50 is > 52 µM (inactive) in experiment [16], 18.6 µM (active) in experiment [17], 25.6 µM (active) in experiment [18] and > 52 µM (inactive) in [19].
